The results in this text go back to patent publication US6809065B2, “Herbicide containing substituted pyrazole derivative as active ingredient” (SDS Biotech K.K., priority 2001, dated 2004).

Series [1] has as its system Chenopodium album. The experiment in a line: Upland field foliage treatment (Test Example 1). In kind it is in vivo. As to conditions: foliage treatment 14th day after sowing, wettable powder, 1 kg active ingredient per hectare, evaluated 21st day after application. In short, it runs like this:
(§1)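 Weeds and crops were sown in upland soil under about 1 cm cover, and a wettable powder diluted in water was sprayed on the foliage 14 days after sowing at 1 kg active ingredient per hectare. Scoring was done 21 days after application on an index scale, where higher weed scores mean stronger herbicidal effect and lower crop scores mean greater crop safety.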

Series [2] concerns Digitaria adscendens. The experiment in a line: Upland field foliage treatment (Test Example 1). It is filed as in vivo. As to conditions: foliage treatment 14th day after sowing, wettable powder, 1 kg active ingredient per hectare, evaluated 21st day after application. In short, it runs like this:
as §1

The subject of series [3] is Setaria viridis. The series is described as follows: Upland field foliage treatment (Test Example 1). As to conditions: foliage treatment 14th day after sowing, wettable powder, 1 kg active ingredient per hectare, evaluated 21st day after application. In kind it is in vivo. In short, it runs like this: as §1
Series [4] deals with Stellaria media. The series is described as follows: Upland field foliage treatment (Test Example 1). It is filed as in vivo. As to conditions: foliage treatment 14th day after sowing, wettable powder, 1 kg active ingredient per hectare, evaluated 21st day after application. In short, it runs like this:
as §1

The subject of series [5] is soybean (Glycine max). The series is described as follows: Upland field foliage treatment (Test Example 1), crop. It is filed as in vivo. As to conditions: foliage treatment 14th day after sowing, 1 kg active ingredient per hectare, evaluated 21st day, lower index = higher safety. An outline of the steps: as §1
Series [6] has as its system wheat (Triticum aestivum). Described as above. As to conditions: foliage treatment 14th day after sowing, 1 kg active ingredient per hectare, evaluated 21st day, lower index = higher safety. It is filed as in vivo. An outline of the steps: as §1
Series [7] concerns Chenopodium album. The experiment in a line: Upland soil treatment (Test Example 2). It is filed as in vivo. As to conditions: soil surface treatment next day after sowing, wettable powder, 1 kg active ingredient per hectare, evaluated 21st day after application. An outline of the steps: (§2)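 Pre-emergence soil treatment: day after sowing, WP formulation diluted in water, applied uniformly to soil surface at 1 kg a.i./ha. Seeds sown ~1 cm deep in upland soil. Visual index read 21 d after application (weeds: high = effective; crop: low = safe).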

The test system of series [8] is Digitaria adscendens. The experiment in a line: Upland soil treatment (Test Example 2). In kind it is in vivo. As to conditions: soil surface treatment next day after sowing, wettable powder, 1 kg active ingredient per hectare, evaluated 21st day after application. An outline of the steps:
as §2

Series [9] relates to Setaria viridis. The series is described as follows: Upland soil treatment (Test Example 2). In kind it is in vivo. As to conditions: soil surface treatment next day after sowing, wettable powder, 1 kg active ingredient per hectare, evaluated 21st day after application. In short, it runs like this: as §2
Series [10] has as its system Stellaria media. The series is described as follows: Upland soil treatment (Test Example 2). As to conditions: soil surface treatment next day after sowing, wettable powder, 1 kg active ingredient per hectare, evaluated 21st day after application. In kind it is in vivo. An outline of the steps:
as §2

The subject of series [11] is soybean (Glycine max). The series is described as follows: Upland soil treatment (Test Example 2), crop. It is filed as in vivo. As to conditions: soil surface treatment next day after sowing, 1 kg active ingredient per hectare, evaluated 21st day, lower index = higher safety. An outline of the steps: as §2
Series [12] deals with wheat (Triticum aestivum). The experiment in a line: Upland soil treatment (Test Example 2), crop. As to conditions: soil surface treatment next day after sowing, 1 kg active ingredient per hectare, evaluated 21st day, lower index = higher safety. It is filed as in vivo. In short, it runs like this:
as §2

The subject of another series is Echinochloa spp. The series is described as follows: Paddy field treatment (Test Example 3). It is filed as in vivo, Echinochloa crusgalli. As to conditions: paddy pot, submerged 4 cm, dropped on water surface 10th day after transplantation, 1 kg active ingredient per hectare, evaluated 21st day. An outline of the steps: (§3)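 Weeds sown in puddled paddy soil under 4 cm water, with two-leaf Koshihikari rice transplanted at 3 cm depth. On day 10 after transplanting, wettable powder applied to the water surface at 1 kg active ingredient per hectare. Herbicidal effect and crop safety scored on an index 21 days later.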

For the next series, the system named is Ammannia multiflora. The experiment in a line: Paddy field treatment (Test Example 3). As to conditions: paddy pot, submerged 4 cm, dropped on water surface 10th day after transplantation, 1 kg active ingredient per hectare, evaluated 21st day. In kind it is in vivo. An outline of the steps: as §3
The next series relates to Monochoria vaginalis. The series is described as follows: Paddy field treatment (Test Example 3). In kind it is in vivo. As to conditions: paddy pot, submerged 4 cm, dropped on water surface 10th day after transplantation, 1 kg active ingredient per hectare, evaluated 21st day. An outline of the steps: as §3
A further series relates to Scirpus juncoides. The experiment in a line: Paddy field treatment (Test Example 3). In kind it is in vivo. As to conditions: paddy pot, submerged 4 cm, dropped on water surface 10th day after transplantation, 1 kg active ingredient per hectare, evaluated 21st day. In short, it runs like this:
as §3

Series [13] concerns rice (Oryza sative, variety: Koshihikari). The series is described as follows: Paddy field treatment (Test Example 3), crop. As to conditions: transplanted rice two-leaf period, water surface treatment 10th day after transplantation, 1 kg active ingredient per hectare, evaluated 21st day, lower index = higher safety. It is filed as in vivo, Oryza sativa. An outline of the steps: as §3

Molecules are shown by their SMILES.

As to `COC=C(Cn1nc(-c2cccc(Cl)c2Cl)cc1C)C(=O)OC` [Compound 6], the “Herbicidal activity Chenopodium album” value was 4 (herbicidal effect of not less than 70% by weight and less than 90% by weight) in the series on Chenopodium album [1]; 4 (herbicidal effect of not less than 70% by weight and less than 90% by weight) with Chenopodium album [7]. Also, the “Herbicidal activity Digitaria adscendens” value was 4 (herbicidal effect of not less than 70% by weight and less than 90% by weight) in the series with Digitaria adscendens [2]; 4 (herbicidal effect of not less than 70% by weight and less than 90% by weight) with Digitaria adscendens [8]. Moreover, the “Herbicidal activity Setaria viridis” value with Setaria viridis [3] was 4 (herbicidal effect of not less than 70% by weight and less than 90% by weight); in the series on Setaria viridis [9] it was 4 (herbicidal effect of not less than 70% by weight and less than 90% by weight). In addition, the “Herbicidal activity Stellaria media” value in the series on Stellaria media [4] was 4 (herbicidal effect of not less than 70% by weight and less than 90% by weight); with Stellaria media [10], 4 (herbicidal effect of not less than 70% by weight and less than 90% by weight). Besides, the “Herbicidal activity Glycine max” value in the series with soybean (Glycine max) [5] was 0 (herbicidal effect of not less than 0% by weight and less than 10% by weight); in the series with soybean (Glycine max) [11], 0 (herbicidal effect of not less than 0% by weight and less than 10% by weight). Moreover, the “Herbicidal activity Triticum aestivum” value in series [6] was 0 (herbicidal effect of not less than 0% by weight and less than 10% by weight); in [12], 0 (herbicidal effect of not less than 0% by weight and less than 10% by weight). In addition, the “Herbicidal activity Echinochloa spp.” value in the series with Echinochloa spp. was 4 (herbicidal effect of not less than 70% by weight and less than 90% by weight). The “Herbicidal activity Ammannia multiflora” value in the series on Ammannia multiflora was 3 (herbicidal effect of not less than 50% by weight and less than 70% by weight). Moreover, the “Herbicidal activity Monochoria vaginalis” value in the series on Monochoria vaginalis was 3 (herbicidal effect of not less than 50% by weight and less than 70% by weight). Also, the “Herbicidal activity Scirpus juncoides” value in the series with Scirpus juncoides was 3 (herbicidal effect of not less than 50% by weight and less than 70% by weight). The “Herbicidal activity Oryza sativa” value in series [13] was 0 (herbicidal effect of not less than 0% by weight and less than 10% by weight).

Turning to `COC=C(Cn1nc(-c2ccc(Cl)c(Cl)c2)cc1C)C(=O)OC` [Compound 10], the “Herbicidal activity Chenopodium album” value is 4 (herbicidal effect of not less than 70% by weight and less than 90% by weight) with Chenopodium album [1]; 4 (herbicidal effect of not less than 70% by weight and less than 90% by weight) in the series with Chenopodium album [7]. The “Herbicidal activity Digitaria adscendens” value is 4 (herbicidal effect of not less than 70% by weight and less than 90% by weight) in the series on Digitaria adscendens [2]; 5 (herbicidal effect of not less than 90% by weight) in the series with Digitaria adscendens [8]. Moreover, the “Herbicidal activity Setaria viridis” value in the series with Setaria viridis [3] is 4 (herbicidal effect of not less than 70% by weight and less than 90% by weight); in the series on Setaria viridis [9], 4 (herbicidal effect of not less than 70% by weight and less than 90% by weight). Also, the “Herbicidal activity Stellaria media” value in the series on Stellaria media [4] is 4 (herbicidal effect of not less than 70% by weight and less than 90% by weight); in the series on Stellaria media [10], 4 (herbicidal effect of not less than 70% by weight and less than 90% by weight). The “Herbicidal activity Glycine max” value with soybean (Glycine max) [5] was 0 (herbicidal effect of not less than 0% by weight and less than 10% by weight); with soybean (Glycine max) [11], 0 (herbicidal effect of not less than 0% by weight and less than 10% by weight). Moreover, the “Herbicidal activity Triticum aestivum” value in series [6] was 0 (herbicidal effect of not less than 0% by weight and less than 10% by weight); in series [12], 0 (herbicidal effect of not less than 0% by weight and less than 10% by weight). Further, the “Herbicidal activity Echinochloa spp.” value with Echinochloa spp. was 3 (herbicidal effect of not less than 50% by weight and less than 70% by weight). Besides, the “Herbicidal activity Ammannia multiflora” value with Ammannia multiflora is 3 (herbicidal effect of not less than 50% by weight and less than 70% by weight). Besides, in the series on Monochoria vaginalis, the “Herbicidal activity Monochoria vaginalis” value was 3 (herbicidal effect of not less than 50% by weight and less than 70% by weight). In addition, the “Herbicidal activity Scirpus juncoides” value in the series on Scirpus juncoides is 3 (herbicidal effect of not less than 50% by weight and less than 70% by weight). Moreover, the “Herbicidal activity Oryza sativa” value in [13] was 0 (herbicidal effect of not less than 0% by weight and less than 10% by weight).
